Results published in PubChem BioAssay AID1845194 (Molecular Pharmacology Branch, DTP, NCI, 2023).
“And” between values parts separate entries of the source, which are not always exact repeats. Identical values can stand only once.

Tested on: 287954-098-R-J1 tumor spheroid viability
Assay: Anticancer human tumor 287954-098-R-J1 patient-derived Ewing sarcoma cell line growth inhibition
Details: spheroids with HUVEC and MSC; for viability, T/C: stronger effect = lower value
Excerpt: Multicellular complex tumor spheroid response to DNA repair inhibitors in combination with DNA-damaging drugs
This study explores the anticancer activities of DNA-damaging drugs and inhibitors of DNA damage repair, both as single agents and in combinations. Complex tumor spheroids comprised of malignant cells, endothelial cells and mesenchymal stem cells served as an in vitro model for human solid tumors. This model system incorporates physiologically relevant features and patient-derived or established malignant cell lines with clinically relevant genetic alterations from many tumor types. Twenty-six patient-derived or established malignant cell lines were evaluated representing sarcoma, melanoma, small cell lung cancer (SCLC), non-small cell lung cancer (NSCLC), as well as bladder, ovarian and pancreatic cancers. The concentration ranges selected for each drug and investigational agent were based upon clinically achievable concentrations if the clinical Cmax of the agent was known.
Compounds. The drugs and compounds olaparib (NSC753686), talazoparib (NSC767125), berzosertib (NSC777718), elimusertib (NSC800525), nedisertib (NSC802822), VX-984 (NSC792969), AZD-1390 (NSC803789), temozolomide (NSC362856), topotecan (NSC609699), trabectedin (NSC813783), staurosporine (NSC755774), and gemcitabine (NSC613327) were obtained from the National Cancer Institute (NCI) Developmental Therapeutics Program Chemical Repository. The FDA-approved anticancer drug set is available from the Developmental Therapeutics Program at https://dtp.cancer.gov/organization/dscb/obtaining/available_plates.htm. […] The stock solutions were prepared in dimethyl sulfoxide (DMSO, Sigma-Aldrich, St. Louis, MO, cat. D2650) at 400-fold the tested concentration and stored at -70 degrees C. Prior to their use, the stock solutions were diluted in fresh medium and the final DMSO concentration in the assay was 0.25% (v/v). All drugs and investigational agents were tested over a range starting from a high concentration at or near the clinical Cmax and decreasing in half-log increments. If the clinical Cmax for an agent had not been determined, the highest concentration tested was 10 microM.
Cell Lines. The patient-derived cancer cell (PDC) lines: 156681-154-R-J1-PDC, 283228-195-R-J1-PDC, 287954-098-R-J1-PDC, 292921-168-R-J2-PDC, 349418-098-R-PDC, 425362-245-T-J1-PDC, 556581-035-R-J1-PDC, and BL0293-F563-PDC were received from the NCI Patient-Derived Models Repository (PDMR, https://pdmr.cancer.gov). The established cell lines HS-SY-2 (RRID:CVCL_8719), MPNST, and SYO-1 (RRID:CVCL_7146) were obtained from the Sloan Kettering Institute. The alveolar soft parts sarcoma cell line ASPS-1 (RRID:CVCL_S738) was established at the NCI and grown from internal seed stocks. The following established cell lines were purchased from the American Type Culture Collection (ATCC, Manassas, VA): G-401 (ATCC, cat. CRL-1441, RRID:CVCL_0270), SW982 (ATCC, cat. HTB-93, RRID:CVCL_1734), VA-ES-BJ (ATCC, cat. CRL-2138, RRID:CVCL_1785), NCI-H719 (ATCC, cat. CRL-5837, RRID:CVCL_1582), NCI-H196 (ATCC, cat. CRL-5823, RRID:CVCL_1509), NCI-H841 (ATCC, cat. CRL-5845, RRID:CVCL_1595), NCI-H1618 (ATCC, cat. CRL-5879, RRID:CVCL_1480), NCI-H1876 (ATCC, cat. CRL-5902, RRID:CVCL_1503), DMS 114 (ATCC, cat. CRL-2066; RRID:CVCL_1174), NCI-H211 (ATCC, cat. CRL-5824; RRID:CVCL_1529), and SW 1271 (ATCC, cat. CRL-2177, RRID:CVCL_1716). The small cell lung cancer cell line COR-L88 was purchased from Sigma-Aldrich (cat. 92031917-1VL, RRID:CVCL_1141). The non-small cell lung cancer cell lines NCI-H226 (RRID:CVCL_1544) and NCI-H322M (RRID:CVCL_1557) were established at the NCI and grown from internal seed stocks. Pooled donor human umbilical vein endothelial cells (HUVEC, Lonza, cat. CC-2519) and human mesenchymal stem cells (hMSC, Lonza, cat. PT-2501) were purchased from Lonza (Walkersville, MD).
Cell Culture. All cells were maintained in an incubator at 37 degrees C and 5% CO2 with 95% humidity. […]
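Further: spheroids exposed to compound for 7 days before viability readout.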
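Wherever viability, T/C is given: luminescent signal taken as surrogate of viable cell content; 100% = DMSO vehicle control viability and lower means growth inhibition.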

SMILES: COc1ccc([C@@H](O)c2cc(-c3ncnc4cc(N5CCOCC5)ccc34)c(F)cc2Cl)nn1
- viability, T/C (compound 0.0316 µM): 96.1% and 101% and 92.6%
- viability, T/C (compound 0.1 µM): 96% and 113% and 96.1%
- viability, T/C (compound 0.316 µM): 97% and 107% and 92.6%
- viability, T/C (compound 1 µM): 105% (2×) and 102%
- viability, T/C (compound 3.16 µM): 109% and 98.1% and 100%
- viability, T/C (compound 10 µM): 103% and 87.1% and 82.1%
- IC50 (curve of compound): > 10 µM

SMILES: Cc1cc(C)c(CNC(=O)c2cc(-c3ccc(CN4CCOCC4)cc3)cc3c2cnn3C2CCCC2)c(=O)[nH]1 + COc1cc2c(cc1O)CCNC21CSC2c3c(OC(C)=O)c(C)c4c(c3C(COC1=O)N1C(O)C3Cc5cc(C)c(OC)c(O)c5C(C21)N3C)OCO4
- IC50 (curve of first compound, second compound 30 pM): > 10 µM
- IC50 (curve of first compound, second compound 94.9 pM): > 10 µM
- IC50 (curve of first compound, second compound 0.0003 µM): > 10 µM
- IC50 (curve of first compound, second compound 0.000949 µM): < 0.0316 µM
- IC50 (curve of first compound, second compound 0.003 µM): < 0.0316 µM
- viability, T/C (second compound 30 pM, first compound 0.0316 µM): 106%
- viability, T/C (second compound 30 pM, first compound 0.1 µM): 108%
- viability, T/C (second compound 30 pM, first compound 0.316 µM): 106%
- viability, T/C (second compound 30 pM, first compound 1 µM): 107%
- viability, T/C (second compound 30 pM, first compound 3.16 µM): 117%
- viability, T/C (second compound 30 pM, first compound 10 µM): 116%
- viability, T/C (second compound 94.9 pM, first compound 0.0316 µM): 106%
- viability, T/C (second compound 94.9 pM, first compound 0.1 µM): 105%
- viability, T/C (second compound 94.9 pM, first compound 0.316 µM): 105%
- viability, T/C (second compound 94.9 pM, first compound 1 µM): 109%
- viability, T/C (second compound 94.9 pM, first compound 3.16 µM): 108%
- viability, T/C (second compound 94.9 pM, first compound 10 µM): 117%
- viability, T/C (second compound 0.0003 µM, first compound 0.0316 µM): 96.7%
- viability, T/C (second compound 0.0003 µM, first compound 0.1 µM): 109%
- viability, T/C (second compound 0.0003 µM, first compound 0.316 µM): 108%
- viability, T/C (second compound 0.0003 µM, first compound 1 µM): 113%
- viability, T/C (second compound 0.0003 µM, first compound 3.16 µM): 103%
- viability, T/C (second compound 0.0003 µM, first compound 10 µM): 102%
- viability, T/C (second compound 0.000949 µM, first compound 0.0316 µM): 0.27%
- viability, T/C (second compound 0.000949 µM, first compound 0.1 µM): 0.28%
- viability, T/C (second compound 0.000949 µM, first compound 0.316 µM): 0.23%
- viability, T/C (second compound 0.000949 µM, first compound 1 µM): 0.2%
- viability, T/C (second compound 0.000949 µM, first compound 3.16 µM): 0.18%
- viability, T/C (second compound 0.000949 µM, first compound 10 µM): 0.25%
- viability, T/C (second compound 0.003 µM, first compound 0.0316 µM): 0.2%
- viability, T/C (second compound 0.003 µM, first compound 0.1 µM): 0.23%
- viability, T/C (second compound 0.003 µM, first compound 0.316 µM): 0.15%
- viability, T/C (second compound 0.003 µM, first compound 1 µM): 0.12%
- viability, T/C (second compound 0.003 µM, first compound 3.16 µM): 0.12%
- viability, T/C (second compound 0.003 µM, first compound 10 µM): 0.22%
